“Also recorded” adds a separate entry of the source.
What was measured:
rats [1] = experiment: Forced swim test (FST), latency to become immobile on re-test; format: in vivo, rat; details: for Latencies to become immobile in the FST: kappa antagonist given ICV (norBNI 5.0 or 20 μg), FIG. 5 and 6A; for Latencies to become immobile on the re-test day in the FST: standard antidepressants vs vehicle (0 mg/kg), FIG. 3A
Method: Another symptom of clinical depression that can be modeled in rats is despair, a feeling of hopelessness. Symptoms of despair can be induced in rats using the forced swim test (FST), a highly validated model used to study antidepressant treatments.
The FST is a two day procedure in which rats swim under conditions in which escape is not possible. On the first day, the rats are forced to swim for 15 minutes. The rats initially search for an escape from the water, but eventually adopt a posture of immobility in which they make only the movements necessary to keep their heads above water. Upon re-testing one day later, latencies to become immobile—an indicator of how rapidly the rats “give up” in response to a familiar stressor—are decreased, which is inferred as despair. Standard antidepressants such as desipramine (DMI) and fluoxetine (FLX) extend latencies to become immobile. Drug efficacy in this animal model is predictive of antidepressant efficacy in humans.
CREB-mediated increases in dynorphin expression within the NAc underlie the decreases in the pleasurable effects of cocaine in the place conditioning paradigm: blockade of brain kappa opioid receptors (on which dynorphin acts) eliminates CREB-induced aversion to cocaine. To determine whether disruption of dynorphin function also eliminates CREB-induced despair in the FST, brain kappa receptors were blocked with either norBNI (nor-binaltorphimine) or GNTI (5′-guanidinyl-17-(cyclopropylmethyl)-6,7-dehydro-4,5α-epoxy-3,14-dihydroxy-6,7-2′,3′-indolomorphinan). […] As with CREB-induced anhedonia, dynorphin is critically involved in CREB-induced despair. Furthermore, they indicate that disruption of CREB function in this region may have antidepressant actions.

[2] = following systemic administration; cited from earlier work
rats [3] = experiment: Locomotor activity in automated activity chambers 24 hours after first FST; details: for Locomotor effects / non-specific motor function: after ICV injection, vs vehicle control, FIG. 6B; for Activity: high doses, vs vehicle (0 mg/kg), FIG. 3B
Method: To examine the effects of gene transfer and antidepressant therapy on locomotor activity, groups of rats were tested for 1 hour in automated activity chambers 24 hours after the first FST.

[4] = humans; cited from earlier work
rats [5] = experiment: Cocaine place conditioning after HSV gene transfer into the NAc; format: in vivo, rat; details: cocaine 5.0 mg/kg IP, FIG. 2B
Method: Place conditioning was performed in a three compartment apparatus. During screening (day 0), rats were placed in the small (12×18×33 cm) central compartment and were allowed to explore the entire apparatus for 30 minutes. The compartments differed in floor texture, wall striping, and lighting. Rats showing no baseline preference were used for the study. Rats received bilateral microinjections (2.0 μl per side) at AP+1.7 mm, Lat±2.3 mm, and DV 6.8 mm. Injections were made over 10 minutes using a 26 gauge needle.
Behavioral testing began on day 3 after vector injection. On the first conditioning trial of each day, rats received saline (1 ml/kg, i.p.) and were confined to one of the large (24×18×33 cm) side compartments of the apparatus. After three hours, rats received cocaine (1.25 mg/kg, i.p.) and were confined to the other side compartment. Three types of conditioning session were used: a one hour pairing session where the animals were placed immediately into the apparatus immediately after treatment for one hour; 15 minute pairing session where the animals were placed immediately into the apparatus immediately after treatment for 15 minutes; or a delayed pairing session where the animals were placed in the apparatus for one hour following a 15 minute delay from drug exposure. […]

SMILES	Latencies to become immobile in the FST (rats [1])	Penetration of the blood-brain-barrier [2]	Locomotor effects / non-specific motor function (rats [3])	Latencies to become immobile on the re-test day in the FST (rats [1])	Activity (rats [3])	other results
NC(N)=Nc1ccc2[nH]c3c(c2c1)C[C@@]1(O)[C@H]2Cc4ccc(O)c5c4[C@@]1(CCN2CC1CC1)[C@H]3O5 [GNTI, 5′-guanidinyl-17-(cyclopropylmethyl)-6,7-dehydro-4,5α-epoxy-3,14-dihydroxy-6,7-2′,3′-indolomorphinan]	significantly longer latencies than the control group; also recorded: dose-dependently increased latencies to become immobile	neither compound can penetrate the blood-brain-barrier	Neither compound affected non-specific motor function			Potency relative to norBNI for increasing latencies to become immobile in the FST (rats [1]; ICV, FIG. 6A): roughly equipotent to norBNI
CNCCC(Oc1ccc(C(F)(F)F)cc1)c1ccccc1 (stereo not drawn) [FLX, fluoxetine]				increased	decreased by high doses	
Oc1ccc2c3c1O[C@H]1c4[nH]c5c(c4C[C@@]4(O)[C@@H](C2)N(CC2CC2)CC[C@]314)C[C@@]1(O)[C@H]2Cc3ccc(O)c4c3[C@@]1(CCN2CC1CC1)[C@H]5O4 [norBNI, nor-binaltorphimine]	dose-dependently increased latencies to become immobile; also recorded: significantly longer latencies than the control group	neither compound can penetrate the blood-brain-barrier	Neither compound affected non-specific motor function			
CN1Cc2c(N)cccc2C(c2ccccc2)C1 (stereo not drawn) [Nomifensine]						Adverse reactions [4]: caused lethal allergic reactions in some people; Antidepressant efficacy in the clinic [4]: clinically effective antidepressant
CNCCCN1c2ccccc2CCc2ccccc21 [DMI, desipramine]				increased	decreased by high doses	
COC(=O)[C@H]1[C@@H](OC(=O)c2ccccc2)C[C@@H]2CC[C@H]1N2C [cocaine]						Place preference, time spent in cocaine-associated environments (rats [5]; HSV-CREB group): no effect; Place preference, time spent in cocaine-associated environments (rats [5]; HSV-mCREB and vehicle groups): ~600 s
